Results as given in BindingDB's records for doi:10.1021/acs.jmedchem.9b01226 (Purdue University, 2020).

Legend:
[1] = molecular target: T1, Proteasome subunit beta type-8 (Homo sapiens, UniProt P28062); assay: Inhibition of immunoproteasome subunit LMP7 in human OPM1 cells assessed as reduction in cell viability incubated for 48 hrs by MTT assay
T1 sequence (P28062 whole entry): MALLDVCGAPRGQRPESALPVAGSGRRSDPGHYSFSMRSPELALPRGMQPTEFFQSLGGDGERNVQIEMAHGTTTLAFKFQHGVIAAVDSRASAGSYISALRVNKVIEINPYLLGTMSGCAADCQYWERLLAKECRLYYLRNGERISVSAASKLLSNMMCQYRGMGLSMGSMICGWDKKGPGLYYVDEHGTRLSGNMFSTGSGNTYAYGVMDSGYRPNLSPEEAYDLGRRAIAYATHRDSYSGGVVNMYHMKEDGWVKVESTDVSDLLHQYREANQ

[2] = molecular target: T1, Proteasome subunit beta type-8; assay: Inhibition of immunoproteasome subunit LMP7 in human RPMI8226 cells assessed as reduction in cell viability incubated for 48 hrs by MTT assay
[3] = molecular target: T1, Proteasome subunit beta type-8; assay: Inhibition of immunoproteasome subunit LMP7 in human DOX40 cells assessed as reduction in cell viability incubated for 48 hrs by MTT assay
[4] = molecular target: T1, Proteasome subunit beta type-8; assay: Inhibition of immunoproteasome subunit LMP7 in human LR5 cells assessed as reduction in cell viability incubated for 48 hrs by MTT assay
[5] = molecular target: T1, Proteasome subunit beta type-8; assay: Inhibition of immunoproteasome subunit LMP7 in human MM.1R cells assessed as reduction in cell viability incubated for 48 hrs by MTT assay
[6] = molecular target: T1, Proteasome subunit beta type-8; assay: Inhibition of immunoproteasome subunit LMP7 in human KMS12PE cells assessed as reduction in cell viability incubated for 48 hrs by MTT assay
[7] = molecular target: T1, Proteasome subunit beta type-8; assay: Inhibition of immunoproteasome subunit LMP7 in human MM.1S cells assessed as reduction in cell viability incubated for 48 hrs by MTT assay
[8] = molecular target: T1, Proteasome subunit beta type-8; assay: Inhibition of immunoproteasome subunit LMP7 in human INA60 cells assessed as reduction in cell viability incubated for 48 hrs by MTT assay
[9] = molecular target: T1, Proteasome subunit beta type-8; assay: Inhibition of immunoproteasome subunit […] in human OPM1 cells assessed as reduction in cell viability incubated for 48 hrs by MTT assay

Measured: IC50

CC1=C(C(=O)N[C@H](C)C(=O)N[C@@H](Cc2c[nH]c3ccccc23)C(=O)N[C@@H](Cc2ccccc2)C(=O)[C@@]2(C)CO2)Cc2ccccc21
3 µM: all assays above
